Drawing on ChEMBL document CHEMBL3886473, “Compounds that are ERK inhibitors” (2016), this text covers IC50 for 1 compound.

Structures are written as SMILES.

The assay has as its target Mitogen-activated protein kinase 1 (Homo sapiens, UniProt P28482). Briefly: IMAP-FP Assay: Activated ERK2 activity was determined in an IMAP-FP assay (Molecular Devices).

Chain of Mitogen-activated protein kinase 1 (P28482 whole entry): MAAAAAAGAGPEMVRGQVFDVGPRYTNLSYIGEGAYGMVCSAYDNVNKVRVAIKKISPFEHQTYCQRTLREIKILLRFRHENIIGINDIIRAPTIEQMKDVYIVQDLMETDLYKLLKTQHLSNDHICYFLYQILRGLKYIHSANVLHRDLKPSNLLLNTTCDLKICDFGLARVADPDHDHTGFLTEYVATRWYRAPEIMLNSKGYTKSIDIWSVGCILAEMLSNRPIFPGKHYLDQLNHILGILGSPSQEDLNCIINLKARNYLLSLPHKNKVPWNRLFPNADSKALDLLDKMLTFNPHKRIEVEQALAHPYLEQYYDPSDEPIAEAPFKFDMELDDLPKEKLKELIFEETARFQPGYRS

`COC(=O)Nc1n[nH]c2cc(NC(=O)N[C@H](C)c3ccc(Cl)c(OC)c3)ncc12` returned an IC50 of 5.2 nM. This counts as single-digit nanomolar.
